Source: article PMC10541198, “Specific quinone reductase 2 inhibitors reduce metabolic burden and reverse Alzheimer’s disease phenotype in mice” (The Journal of Clinical Investigation, 2023)
“And” between values parts separate entries of the source, which are not always exact repeats. Equal values may be shown once.

Columns and labels:
5xFAD mice [1] = assay: Morris water maze in 5xFAD mice; assay type: in vivo, mouse; settings: for MWM escape latency (individual mice): 5xFAD 1 month
Description: We next aimed to test the effect of QR2 inhibition in AD model mice using YB-537, taking advantage of its extremely high specificity, solubility, and lack of toxicity. First, we determined YB-537 pharmacokinetics (PK) and oral bioavailability and assessed any acute observable toxicity in mice. […] We therefore opted to chronically deliver YB-537 to AD-model mice via their drinking water, so they may freely ingest the inhibitor at 50 mg/kg, with minimal intervention or trauma, for 1 month. We chose 9-month-old 5xFAD ([27]) male and female mice in double-blind experiments, so that well-progressed symptoms and pathologies would be present, to mimic clinically relevant cases in human patients ([35]), as has been previously described in this mouse model. Other than an improvement in nest quality ([36]) over time seen in animals receiving YB-537 (starting at age 8 months and ending at age 9 months), no changes to general physical parameters or wellbeing were observed over the 1 month of YB-537 ingestion (Supplemental Figure 6, A–J). Animals received the treatment for a week, and, on week 2, behavioral experiments commenced, including Morris water maze (MWM) and novel object recognition (NOR). These were carried out in parallel, with half of the animals (including both sexes and treatments) undergoing 1 of the paradigms in week 2, and the other in week 3. […] Since learning in this paradigm was slow, and performance was poor even following 6 days of training (using 4 learning trials a day), a test day was not carried out and instead only the learning rate was measured. […] Finally, during week 4, all the mice underwent DFC.
MWM was carried out as previously described ([57]). Mice were trained 4 times a day, using 60 second trials every 30 minutes during which they were placed into the pool, each time from a different quadrant, and allowed to swim to find the escape platform. All trials were filmed with a video tracking system using EthoVision 14 (Noldus Information Technology), and escape latency, or time to find the submerged escape platform, was determined by video analysis. […]
Morri s wat er maze ( MWM) was carried out as previously described(58). At the sam e time each consecutive day, mice were placed in the dimly lit room containing the maze for 10 min, within cages containing dry bedding (not the home cages). The maze was obscured by a non-light- permeable curtain. The maze consisted of a 1.2 m pool, with RT (21- 23 °C) water colored light grey, to hide the submerged (under 1- 2 cm) transparent, 10 cm in diam et er plastic escape platform, which was placed at t he south- western quadrant of the pool. Mi ce wer e trained 4 times a day, using 60 s trials ever y 30 min during which t he y were pl a c ed into t he pool, each time fr om a di fferent quadrant, and allowed to swim and find t he escape platform. Upon reaching t he platform, m ice were removed fr om t he pool. If the mice f ai led to find the […] within 60 s, […]
they were carefully placed on the escape platform and held there for 15 s prior to being taken out of the pool. All trials were filmed with a video tracking system using EthoVision 14 (Noldus Information Technology), andescape latency (time to find the submer ged escape platform) was determined by manual video analysis (due to automated det ect ion settings unable to discern all mice coat c ol or s – bl a c k, white a nd brown - against the opaque water).
Mice were individually placed within a cage and taken to a dimly lit room containing an open field arena 50 x 50 cm in size. They were gi ve n 10 min prior to be i ng placed within the arena, where f or a period of 5 min they were allowed to explore. Two weeks later, this was repeated. The mice were filmed with an Ikegami ICD-49E camera with EthoVision 14 (Noldus Information Technology). Th e fl oor was ei ther whit e or black,dependingon mous e coat c ol or, to allow automatic analysisof movement par am et ers, apar t from rearing which was manually counted. […]

5xFAD mice [2] = assay: General wellbeing / adverse effects during 1 month ingestion; assay type: in vivo, mouse; settings: 8-to-9-month-old 5xFAD, both sexes, 50 mg/kg in drinking water, month-long
Description: We next aimed to test the effect of QR2 inhibition in AD model mice using YB-537, taking advantage of its extremely high specificity, solubility, and lack of toxicity. First, we determined YB-537 pharmacokinetics (PK) and oral bioavailability and assessed any acute observable toxicity in mice. […] We therefore opted to chronically deliver YB-537 to AD-model mice via their drinking water, so they may freely ingest the inhibitor at 50 mg/kg, with minimal intervention or trauma, for 1 month. We chose 9-month-old 5xFAD ([27]) male and female mice in double-blind experiments, so that well-progressed symptoms and pathologies would be present, to mimic clinically relevant cases in human patients ([35]), as has been previously described in this mouse model. Other than an improvement in nest quality ([36]) over time seen in animals receiving YB-537 (starting at age 8 months and ending at age 9 months), no changes to general physical parameters or wellbeing were observed over the 1 month of YB-537 ingestion (Supplemental Figure 6, A–J). […] Since learning in this paradigm was slow, and performance was poor even following 6 days of training (using 4 learning trials a day), a test day was not carried out and instead only the learning rate was measured. […]

In the case of `Cc1ccc(-c2cn3cccc(C)c3n2)cc1S(=O)(=O)N1CCNCC1` [YB-537], the “MWM escape latency (individual mice)” value (5xFAD mice [1]; both sexes, Day 1) was 60.0 (8×) and 29.4 and 26.8 and 55.1 and 57.2 and 53.5 (2×) and 41.6 and 50.9, the “MWM escape latency (individual mice)” value (5xFAD mice [1]; both sexes, Day 2) was 60.0 (6×) and 28.0 and 23.5 and 59.7 and 50.7 and 45.3 and 33.5 and 15.1 and 54.5 and 36.1 and 58.0 and the “MWM escape latency (individual mice)” value (5xFAD mice [1]; both sexes, Day 3) was 48.7 and 59.3 and 42.1 and 33.7 and 34.3 and 45.6 and 37.0 and 60.0 (2×) and 49.6 and 35.1 and 26.9 and 13.8 and 47.4 and 47.7 and 54.0. For the same molecule, the “MWM escape latency (individual mice)” value (5xFAD mice [1]; both sexes, Day 4, in s (unit assumed)) was 44.6 and 57.9 and 24.5 and 37.5 and 31.1 and 37.6 and 51.0 and 60.0 and 52.1 and 34.3 and 5.9 and 14.1 and 13.3 and 23.0 and 48.5 and 53.9, the “MWM escape latency (individual mice)” value (5xFAD mice [1]; both sexes, Day 5, in s (unit assumed)) was 19.0 and 40.4 and 25.1 and 16.2 and 18.6 and 45.8 and 60.0 and 50.4 and 37.0 and 38.2 and 5.7 and 19.6 and 7.3 and 21.1 and 16.8 and 48.8 and the “MWM escape latency (individual mice)” value (5xFAD mice [1]; both sexes, Day 6) was 39.3 and 17.9 and 20.3 and 12.9 and 14.8 and 34.0 and 50.7 and 60.0 and 14.1 and 16.8 and 5.6 and 7.2 (2×) and 16.3 and 19.0 and 27.9. The “MWM escape latency (individual mice)” value (5xFAD mice [1]; males, Day 5, in s (unit assumed)) was 16.2 and 18.6 and 45.8 and 60.0, the “spatial learning in MWM (escape latency over 6 days)” value (5xFAD mice [1]; 5xFAD, 50 mg/kg in drinking water, 1 month, both sexes) was “trend toward faster spatial learning” and the “adverse effects of chronic ingestion” value (5xFAD mice [2]) was “no adverse effects were seen”.
